# Calls of active or inactive are those of the source.
# Experiments:
# [1] = target: T1, DNA dC->dU-editing enzyme APOBEC-3G (Homo sapiens, UniProt Q9HC16); format: functional
# [2] = target: T2, DNA dC->dU-editing enzyme APOBEC-3A (Homo sapiens, UniProt P31941); experiment: Dose Response confirmation of small molecule APOBEC3A DNA Deaminase Inhibitors via a fluorescence-based single-stranded DNA deaminase assay. [Related pubchem assays (depositor defined):AID493011, AID493024]; format: functional
# T2 sequence (P31941 whole entry): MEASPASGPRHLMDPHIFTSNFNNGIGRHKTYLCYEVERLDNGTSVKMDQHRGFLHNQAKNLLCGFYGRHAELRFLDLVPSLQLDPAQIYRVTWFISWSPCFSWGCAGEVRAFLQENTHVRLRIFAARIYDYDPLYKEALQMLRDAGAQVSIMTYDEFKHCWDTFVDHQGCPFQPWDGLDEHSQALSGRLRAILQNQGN
# [3] = target: Glyceraldehyde-3-phosphate dehydrogenase (Homo sapiens, UniProt P04406)
# Chain of Glyceraldehyde-3-phosphate dehydrogenase (P04406 whole entry): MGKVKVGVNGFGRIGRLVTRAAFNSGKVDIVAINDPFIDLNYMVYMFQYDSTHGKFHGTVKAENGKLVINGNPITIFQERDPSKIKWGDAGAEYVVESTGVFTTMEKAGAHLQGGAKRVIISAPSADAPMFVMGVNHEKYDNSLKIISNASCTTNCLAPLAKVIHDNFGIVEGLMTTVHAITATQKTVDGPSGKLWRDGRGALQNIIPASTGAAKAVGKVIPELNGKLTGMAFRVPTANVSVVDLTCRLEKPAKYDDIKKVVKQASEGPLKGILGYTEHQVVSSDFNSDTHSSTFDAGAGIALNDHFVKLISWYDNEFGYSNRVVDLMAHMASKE
# [4] = target: T3, Acyl-homoserine lactone acylase PvdQ (Pseudomonas aeruginosa (strain LESB58), UniProt Q9I194); experiment: P. aeruginosa PvdQ acylase inhibitors, dose response, biochemical, fluorescence, plate reader and imaging, cherry-picks (AID 493231)
# T3 sequence (Q9I194 whole entry): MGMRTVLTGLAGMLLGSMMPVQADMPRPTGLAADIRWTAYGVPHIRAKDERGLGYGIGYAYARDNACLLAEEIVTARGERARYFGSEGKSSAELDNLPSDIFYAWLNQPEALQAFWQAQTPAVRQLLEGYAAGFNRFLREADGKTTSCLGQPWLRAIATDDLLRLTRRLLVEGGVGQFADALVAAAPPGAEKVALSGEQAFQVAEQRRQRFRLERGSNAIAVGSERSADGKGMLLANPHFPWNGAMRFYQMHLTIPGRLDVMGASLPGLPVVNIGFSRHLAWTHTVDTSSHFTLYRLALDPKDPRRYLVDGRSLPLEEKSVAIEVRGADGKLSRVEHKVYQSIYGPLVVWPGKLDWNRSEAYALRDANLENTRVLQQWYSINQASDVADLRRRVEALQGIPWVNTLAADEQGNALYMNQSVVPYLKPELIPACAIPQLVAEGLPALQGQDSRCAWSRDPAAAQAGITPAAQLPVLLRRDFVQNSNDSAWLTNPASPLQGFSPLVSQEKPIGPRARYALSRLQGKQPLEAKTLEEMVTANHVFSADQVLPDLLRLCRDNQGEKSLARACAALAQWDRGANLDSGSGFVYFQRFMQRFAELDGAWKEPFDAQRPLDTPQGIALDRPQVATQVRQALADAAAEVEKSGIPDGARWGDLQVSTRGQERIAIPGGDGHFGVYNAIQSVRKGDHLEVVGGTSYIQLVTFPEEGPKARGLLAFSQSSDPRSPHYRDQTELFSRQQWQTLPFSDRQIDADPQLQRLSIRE
# [5] = target: T4, Voltage-gated N-type calcium channel alpha-1B subunit/Amyloid beta A4 precursor protein-binding family A member 1 (Homo sapiens, UniProt Q00975+Q02410); experiment: disruptors of Mint-PDZ/N-type channel peptide interaction – biochemical, HTRF, SAR follow-up (AID 2489); format: functional
# T4 sequence (Q00975 whole entry): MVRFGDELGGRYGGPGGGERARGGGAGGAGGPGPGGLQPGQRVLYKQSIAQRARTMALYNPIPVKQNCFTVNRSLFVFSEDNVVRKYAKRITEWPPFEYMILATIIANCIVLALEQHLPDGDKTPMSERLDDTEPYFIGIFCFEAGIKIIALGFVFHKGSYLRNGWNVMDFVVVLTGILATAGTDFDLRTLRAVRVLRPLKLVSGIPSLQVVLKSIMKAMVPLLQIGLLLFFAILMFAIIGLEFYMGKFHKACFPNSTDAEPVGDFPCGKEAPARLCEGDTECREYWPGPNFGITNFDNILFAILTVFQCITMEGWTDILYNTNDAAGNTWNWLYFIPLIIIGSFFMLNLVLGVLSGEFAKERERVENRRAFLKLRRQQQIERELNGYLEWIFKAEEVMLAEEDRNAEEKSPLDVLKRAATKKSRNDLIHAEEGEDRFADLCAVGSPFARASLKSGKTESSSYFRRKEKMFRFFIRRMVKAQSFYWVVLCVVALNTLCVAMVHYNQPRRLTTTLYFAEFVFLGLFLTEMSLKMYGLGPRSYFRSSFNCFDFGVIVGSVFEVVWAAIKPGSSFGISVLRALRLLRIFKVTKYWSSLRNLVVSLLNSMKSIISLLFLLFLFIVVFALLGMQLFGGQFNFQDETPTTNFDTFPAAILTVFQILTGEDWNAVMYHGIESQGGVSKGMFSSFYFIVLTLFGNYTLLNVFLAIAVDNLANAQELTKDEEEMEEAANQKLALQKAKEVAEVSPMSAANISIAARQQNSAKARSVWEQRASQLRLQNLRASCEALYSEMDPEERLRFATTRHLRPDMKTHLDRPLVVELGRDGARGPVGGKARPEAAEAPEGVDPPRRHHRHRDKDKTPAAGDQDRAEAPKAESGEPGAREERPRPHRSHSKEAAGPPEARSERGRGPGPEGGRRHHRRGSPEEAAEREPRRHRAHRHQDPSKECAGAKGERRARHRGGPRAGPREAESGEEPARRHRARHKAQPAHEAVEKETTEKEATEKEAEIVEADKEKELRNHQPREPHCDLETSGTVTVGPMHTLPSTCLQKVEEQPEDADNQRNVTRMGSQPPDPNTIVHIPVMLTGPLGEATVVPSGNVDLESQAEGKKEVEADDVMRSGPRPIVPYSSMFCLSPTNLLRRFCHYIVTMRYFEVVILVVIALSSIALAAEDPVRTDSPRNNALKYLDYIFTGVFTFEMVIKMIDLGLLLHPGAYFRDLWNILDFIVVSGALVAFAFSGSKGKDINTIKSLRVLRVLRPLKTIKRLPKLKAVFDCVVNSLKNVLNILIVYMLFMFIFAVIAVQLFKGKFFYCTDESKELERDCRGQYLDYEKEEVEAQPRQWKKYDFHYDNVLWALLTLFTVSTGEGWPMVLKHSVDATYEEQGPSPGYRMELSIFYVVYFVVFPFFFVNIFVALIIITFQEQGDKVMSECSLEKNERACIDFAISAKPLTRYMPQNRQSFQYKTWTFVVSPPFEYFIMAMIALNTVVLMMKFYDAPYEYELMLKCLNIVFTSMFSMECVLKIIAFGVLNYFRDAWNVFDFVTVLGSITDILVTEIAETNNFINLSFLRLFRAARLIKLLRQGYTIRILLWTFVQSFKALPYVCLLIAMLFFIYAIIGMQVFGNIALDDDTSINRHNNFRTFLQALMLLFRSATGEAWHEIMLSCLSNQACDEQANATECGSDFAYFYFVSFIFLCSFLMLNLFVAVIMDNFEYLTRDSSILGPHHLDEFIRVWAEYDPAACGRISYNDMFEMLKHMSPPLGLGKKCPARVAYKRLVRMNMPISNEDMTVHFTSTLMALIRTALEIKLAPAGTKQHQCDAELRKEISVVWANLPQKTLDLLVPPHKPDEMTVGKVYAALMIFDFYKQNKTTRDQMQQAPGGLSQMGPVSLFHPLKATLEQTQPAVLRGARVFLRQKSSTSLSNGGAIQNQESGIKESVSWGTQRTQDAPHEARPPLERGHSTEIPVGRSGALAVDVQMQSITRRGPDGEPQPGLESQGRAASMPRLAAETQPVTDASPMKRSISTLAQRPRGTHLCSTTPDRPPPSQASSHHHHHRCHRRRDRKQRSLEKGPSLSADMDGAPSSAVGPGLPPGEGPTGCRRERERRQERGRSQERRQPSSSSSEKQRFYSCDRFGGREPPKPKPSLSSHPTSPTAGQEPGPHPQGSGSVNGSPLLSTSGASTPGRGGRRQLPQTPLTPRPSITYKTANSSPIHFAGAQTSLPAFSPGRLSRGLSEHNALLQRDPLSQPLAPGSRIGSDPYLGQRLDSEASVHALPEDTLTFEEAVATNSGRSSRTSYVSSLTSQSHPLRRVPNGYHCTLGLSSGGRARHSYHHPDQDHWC
# T4 sequence (Q02410 whole entry): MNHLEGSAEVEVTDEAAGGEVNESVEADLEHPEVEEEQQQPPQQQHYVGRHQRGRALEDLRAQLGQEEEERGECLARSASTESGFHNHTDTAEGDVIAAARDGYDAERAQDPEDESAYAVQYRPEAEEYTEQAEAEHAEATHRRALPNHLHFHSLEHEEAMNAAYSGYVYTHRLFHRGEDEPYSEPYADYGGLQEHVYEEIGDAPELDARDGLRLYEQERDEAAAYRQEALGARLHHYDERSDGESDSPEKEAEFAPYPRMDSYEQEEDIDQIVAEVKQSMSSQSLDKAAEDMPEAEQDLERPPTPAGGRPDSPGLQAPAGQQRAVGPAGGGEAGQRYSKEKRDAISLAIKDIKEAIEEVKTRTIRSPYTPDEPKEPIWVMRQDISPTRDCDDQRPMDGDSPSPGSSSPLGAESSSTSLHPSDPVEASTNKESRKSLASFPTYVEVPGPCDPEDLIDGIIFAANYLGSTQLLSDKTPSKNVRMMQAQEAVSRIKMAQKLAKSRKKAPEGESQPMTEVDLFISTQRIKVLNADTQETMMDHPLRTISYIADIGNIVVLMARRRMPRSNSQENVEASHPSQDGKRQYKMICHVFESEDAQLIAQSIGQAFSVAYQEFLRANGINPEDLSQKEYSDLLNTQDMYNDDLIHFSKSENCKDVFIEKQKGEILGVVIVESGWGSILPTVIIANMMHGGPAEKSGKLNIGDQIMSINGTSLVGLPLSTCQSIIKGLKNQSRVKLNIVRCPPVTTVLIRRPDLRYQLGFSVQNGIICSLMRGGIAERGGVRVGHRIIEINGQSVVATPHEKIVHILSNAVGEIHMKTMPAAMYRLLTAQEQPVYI
# [6] = target: T4, Voltage-gated N-type calcium channel alpha-1B subunit/Amyloid beta A4 precursor protein-binding family A member 1; experiment: disruptors of Mint-PDZ/N-type channel peptide interaction – biochemical, HTRF, set 2, SAR follow-up (AID 434980); format: functional
# [7] = target: T2, DNA dC->dU-editing enzyme APOBEC-3A; experiment: APOBEC3A DNA deaminase inhibitors, dose response, biochemical (AID 504722); format: functional
# [8] = target: T1, DNA dC->dU-editing enzyme APOBEC-3G; experiment: Dose Response confirmation of small molecule APOBEC3G DNA Deaminase Inhibitors via a fluorescence-based single-stranded DNA deaminase assay. [Related pubchem assays (depositor defined):AID493012, AID493028]; format: functional
# [9] = target: Glucose-6-phosphate 1-dehydrogenase (Homo sapiens, UniProt P11413); experiment: human G6PD enzyme inhibitors, dose response, selectivity assay for P. falciparum G6PD inhibitor project, biochemical, fluorescence (AID 504792); format: functional
# Chain of Glucose-6-phosphate 1-dehydrogenase (P11413 whole entry): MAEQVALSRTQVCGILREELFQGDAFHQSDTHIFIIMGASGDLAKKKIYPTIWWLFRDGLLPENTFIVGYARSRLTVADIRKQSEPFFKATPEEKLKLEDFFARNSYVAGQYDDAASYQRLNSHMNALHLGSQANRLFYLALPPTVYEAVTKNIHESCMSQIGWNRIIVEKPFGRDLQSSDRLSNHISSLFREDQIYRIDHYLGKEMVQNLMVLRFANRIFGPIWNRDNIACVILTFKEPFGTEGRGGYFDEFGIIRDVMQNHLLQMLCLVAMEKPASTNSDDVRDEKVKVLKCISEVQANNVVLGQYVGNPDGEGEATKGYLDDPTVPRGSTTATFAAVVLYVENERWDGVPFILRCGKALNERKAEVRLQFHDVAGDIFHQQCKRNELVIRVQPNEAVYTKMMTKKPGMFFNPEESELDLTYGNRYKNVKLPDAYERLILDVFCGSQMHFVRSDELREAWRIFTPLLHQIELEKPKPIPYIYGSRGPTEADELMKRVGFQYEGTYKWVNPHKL
# [10] = target: Peroxisome proliferator-activated receptor gamma/Nuclear receptor coactivator 2 (Homo sapiens, UniProt P37231); format: functional;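 also: agonist potency for raising coactivator recruitment to the receptor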
# [11] = target: Peroxisome proliferator-activated receptor gamma/Nuclear receptor coactivator 1 (Homo sapiens, UniProt P37231); format: functional;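 also: agonist potency as compounds enhance coactivator SRC-1 recruitment to PPARgamma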
# [12] = target: Peroxisome proliferator-activated receptor gamma/Nuclear receptor coactivator 3 (Homo sapiens, UniProt P37231); format: functional;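 also: agonist potency for raising coactivator recruitment to the receptor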
# [13] = target: T5, Heat shock factor protein 1 (Mus musculus, UniProt P38532); experiment: HSF1 potentiators in luciferase reporter cells, confirmation, cell-based, NIH3T3, luminescence, dose retest (AID 435004); format: functional;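 also: stress induced by proteasome inhibitor MG132 added 30 min after compound; luciferase reporter driven by HSF1 response element in NIH3T3 cells; actives raise luminescence as potentiators of the MG132 stress response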
# T5 sequence (P38532 whole entry): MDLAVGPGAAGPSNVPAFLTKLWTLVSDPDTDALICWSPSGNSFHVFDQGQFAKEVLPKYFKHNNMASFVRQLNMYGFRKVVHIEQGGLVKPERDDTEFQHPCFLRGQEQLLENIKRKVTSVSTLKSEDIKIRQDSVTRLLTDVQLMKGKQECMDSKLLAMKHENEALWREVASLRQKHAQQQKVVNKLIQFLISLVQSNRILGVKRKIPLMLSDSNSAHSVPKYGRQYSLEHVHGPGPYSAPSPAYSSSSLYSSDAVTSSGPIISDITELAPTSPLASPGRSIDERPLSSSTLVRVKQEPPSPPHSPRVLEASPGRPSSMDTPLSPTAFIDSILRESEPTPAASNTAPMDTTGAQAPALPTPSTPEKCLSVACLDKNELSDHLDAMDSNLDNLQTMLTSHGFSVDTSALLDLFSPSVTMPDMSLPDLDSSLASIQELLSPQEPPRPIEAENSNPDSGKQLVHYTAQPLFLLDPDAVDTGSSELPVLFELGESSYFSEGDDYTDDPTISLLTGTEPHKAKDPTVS
# [14] = THP-1 cell cytotoxicity, dose response, cytotoxicity control for Vif-APOBEC3G degradation inhibitor project, THP-1 cells (AID 1117359); format: functional; details: Human immunodeficiency virus 1, THP-1
# [15] = enhancers of respiration in Yfh1-depleted yeast, dose response, Friedreich's ataxia, plus single-dose screen (AID 1465); format: functional;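 also: yeast depleted of Yfh1p frataxin homolog grown on glycerol needing respiration; WST-1 tetrazolium dye reduction as measure of cellular dehydrogenase metabolic activity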
# Leucine aminopeptidase = target: T6, Leucine aminopeptidase (Plasmodium falciparum 3D7, UniProt Q8IL11); experiment: P. falciparum M17LAP inhibitors, primary screen, biochemical, fluorogenic H-Leu-NHMec substrate, 1536-well (AID 1619); format: functional
# T6 sequence (Q8IL11 whole entry): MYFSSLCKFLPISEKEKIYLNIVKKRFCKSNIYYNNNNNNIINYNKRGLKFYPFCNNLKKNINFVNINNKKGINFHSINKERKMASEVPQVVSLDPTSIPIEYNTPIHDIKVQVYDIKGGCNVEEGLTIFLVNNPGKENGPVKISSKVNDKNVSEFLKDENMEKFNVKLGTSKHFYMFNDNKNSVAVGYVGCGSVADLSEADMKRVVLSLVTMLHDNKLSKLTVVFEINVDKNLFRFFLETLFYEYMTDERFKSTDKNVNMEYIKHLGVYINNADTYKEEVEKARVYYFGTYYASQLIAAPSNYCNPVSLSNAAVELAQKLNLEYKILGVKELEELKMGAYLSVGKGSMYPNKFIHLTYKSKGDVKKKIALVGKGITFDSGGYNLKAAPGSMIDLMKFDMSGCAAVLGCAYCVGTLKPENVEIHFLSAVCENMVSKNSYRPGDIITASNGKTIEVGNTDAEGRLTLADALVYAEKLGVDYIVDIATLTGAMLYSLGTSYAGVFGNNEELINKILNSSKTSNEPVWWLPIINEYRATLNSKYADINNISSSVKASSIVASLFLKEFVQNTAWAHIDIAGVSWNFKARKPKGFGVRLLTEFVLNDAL
# [16] = target: T4, Voltage-gated N-type calcium channel alpha-1B subunit/Amyloid beta A4 precursor protein-binding family A member 1; format: protein assay
# [17] = target: T4, Voltage-gated N-type calcium channel alpha-1B subunit/Amyloid beta A4 precursor protein-binding family A member 1; format: protein assay; remark: listed apart in the source
# [18] = target: Neurotensin receptor type 1 (Homo sapiens, UniProt P30989); format: functional;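 also: Image-based confirmatory dose-response assay measuring agonist activity at NTR1; NTR1-expressing U2OS osteosarcoma cells imaged for beta-arrestin GFP spot formation; agonist potency where compounds increase beta-arrestin recruitment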
# Chain of Neurotensin receptor type 1 (P30989 whole entry): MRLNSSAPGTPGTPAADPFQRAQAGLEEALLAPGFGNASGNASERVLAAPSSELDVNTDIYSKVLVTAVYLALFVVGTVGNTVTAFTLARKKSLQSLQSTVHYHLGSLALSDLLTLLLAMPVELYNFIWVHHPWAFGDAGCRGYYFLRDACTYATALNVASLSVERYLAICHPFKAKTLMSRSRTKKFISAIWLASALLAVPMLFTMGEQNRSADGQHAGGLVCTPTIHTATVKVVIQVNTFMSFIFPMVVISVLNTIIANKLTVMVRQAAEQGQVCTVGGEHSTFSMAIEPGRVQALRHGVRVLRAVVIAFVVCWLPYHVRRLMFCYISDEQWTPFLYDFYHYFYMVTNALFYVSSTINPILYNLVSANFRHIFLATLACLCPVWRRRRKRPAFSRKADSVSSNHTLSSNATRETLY
# Beta-galactosidase = Beta-galactosidase (Escherichia coli, UniProt Q8VNN2); experiment: beta-galactosidase enzyme inhibitors and activators, dose response, artefact control for CCR6 antagonist project, biochemical, E. coli enzyme, set 3 (AID 504712); format: functional
# [19] = target: T7, C-C chemokine receptor type 6 (Homo sapiens, UniProt P51684); experiment: CCR6 receptor antagonists, dose response, cell-based, luminescent beta-arrestin readout (AID 504728); format: functional
# T7 sequence (P51684 whole entry): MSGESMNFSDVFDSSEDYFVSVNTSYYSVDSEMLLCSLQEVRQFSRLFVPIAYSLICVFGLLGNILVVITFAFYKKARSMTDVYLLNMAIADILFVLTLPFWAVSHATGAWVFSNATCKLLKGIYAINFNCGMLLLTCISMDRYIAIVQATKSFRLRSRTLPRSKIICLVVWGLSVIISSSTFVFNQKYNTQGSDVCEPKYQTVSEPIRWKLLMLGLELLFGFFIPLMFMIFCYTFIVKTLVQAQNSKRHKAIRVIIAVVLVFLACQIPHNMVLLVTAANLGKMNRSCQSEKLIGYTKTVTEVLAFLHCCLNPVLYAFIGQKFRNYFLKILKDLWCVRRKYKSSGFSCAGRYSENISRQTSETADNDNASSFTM
# Hexokinase = target: T8, Hexokinase (Trypanosoma brucei, UniProt Q38C41); experiment: Confirmation assay for inhibitors of Trypanosoma brucei hexokinase 1-Analogue-first series. [Related pubchem assays (depositor defined):AID1430, AID1632, AID2516, AID2560, AID2579, AID2600, AID449725, AID492951]; format: functional
# T8 sequence (Q38C41 whole entry): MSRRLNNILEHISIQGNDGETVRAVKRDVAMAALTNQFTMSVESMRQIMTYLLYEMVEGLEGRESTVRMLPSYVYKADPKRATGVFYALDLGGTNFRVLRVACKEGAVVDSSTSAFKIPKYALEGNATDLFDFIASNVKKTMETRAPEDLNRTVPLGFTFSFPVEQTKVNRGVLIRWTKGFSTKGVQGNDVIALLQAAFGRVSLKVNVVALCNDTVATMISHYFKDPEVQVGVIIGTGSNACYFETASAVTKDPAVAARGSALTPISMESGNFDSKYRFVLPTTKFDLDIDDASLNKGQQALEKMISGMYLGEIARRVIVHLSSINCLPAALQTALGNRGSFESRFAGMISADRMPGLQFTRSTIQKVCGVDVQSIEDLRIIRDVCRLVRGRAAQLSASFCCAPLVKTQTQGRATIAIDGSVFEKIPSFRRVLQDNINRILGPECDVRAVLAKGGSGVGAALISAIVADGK
# T1 sequence (Q9HC16 whole entry): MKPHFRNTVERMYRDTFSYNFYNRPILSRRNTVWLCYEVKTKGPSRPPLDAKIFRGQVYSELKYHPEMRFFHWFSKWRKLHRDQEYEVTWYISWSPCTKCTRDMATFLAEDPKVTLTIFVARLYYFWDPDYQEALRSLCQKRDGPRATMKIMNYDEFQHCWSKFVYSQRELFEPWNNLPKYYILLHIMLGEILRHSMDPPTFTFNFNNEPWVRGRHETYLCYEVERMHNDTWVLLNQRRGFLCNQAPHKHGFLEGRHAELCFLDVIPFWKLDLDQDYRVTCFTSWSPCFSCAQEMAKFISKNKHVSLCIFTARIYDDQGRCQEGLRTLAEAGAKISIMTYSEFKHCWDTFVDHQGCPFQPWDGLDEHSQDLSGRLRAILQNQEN
structure (smiles),measurement,setting,value
CCOc1ccc(CN2C(=O)c3ccccc3C2=O)cc1C(=O)NC1CC(C)(C)NC(C)(C)C1,IC50,[1],3.18 µM (active)
same,IC50,[2],2.87 µM (active)
CCN1CCN(C2=C(Cl)C(=O)N(c3cccc(C(F)(F)F)c3)C2=O)CC1,IC50,[3],> 50 µM (inconclusive)
Cc1cc(C)cc(N2CC(c3nc4ccccc4n3C)CC2=O)c1 (stereo not given),IC50,[1],16.1 µM (active)
same,IC50,[2],9.16 µM (active)
N#CC(Sc1ccccn1)c1ccc(Cl)cc1 (stereo not given),AC50,[4],7.09 µM (active)
CC(=O)Oc1ccc(N2C(=O)C3C4C=CC(O4)C3C2=O)cc1 (stereo not given),IC50,[5],> 56.8 µM (inactive)
same,IC50,[6],18.8 µM (active)
O=C(NCCCN1CCOCC1)c1sc2cc([N+](=O)[O-])ccc2c1Cl,IC50,[7],> 100 µM (inactive)
same,IC50,[8],6.34 µM (active)
same,IC50,[9],> 80 µM (inactive)
N#Cc1ccc(-c2ccc(Cl)cc2)nc1Oc1ccc(F)cc1,EC50,[10],> 79.4 µM (not active)
same,EC50,[11],> 79.4 µM (not active)
same,EC50,[12],> 79.4 µM (not active)
same,EC50,[13],> 260 µM (inconclusive)
Oc1ccc(NCc2ccccc2OCc2ccccc2)cc1,CC50,[14],22.7 µM (active)
same,EC50,[10],> 79.4 µM (not active)
same,EC50,[11],> 79.4 µM (not active)
same,EC50,[12],> 79.4 µM (not active)
same,IC50,[9],> 80 µM (inactive)
CCN1CCN(c2ccc(NC(=O)c3ccc4c(c3)OCCO4)cc2C)CC1,IC50,[1],4.12 µM (active)
same,IC50,[2],4.49 µM (active)
COCCNC(=O)/C(C#N)=C/c1ccc(N2CCOCC2)o1,EC50,[15],> 100 µM (active)
same,IC50,Leucine aminopeptidase,113 µM (active)
CC(C)NC(=O)COC(=O)/C=C/c1ccco1,IC50,[16],9.71 µM (active)
same,IC50,[17],> 50 µM (inactive)
O=C(/C=C/c1cccnc1)c1ccc(F)c(F)c1,EC50,[18],11.4 µM (active)
Cc1ccc(-n2c(=O)c3sccc3n(Cc3cc(=O)n4ccccc4n3)c2=O)cc1,IC50,cells,26.4 µM (active)
COc1ccc(NC2c3ncccc3C(=O)N2Cc2cccs2)cc1 (stereo not given),IC50,cells,45.6 µM (active)
CC1(C)C2CC[C@]3(C)C(CC=C4[C@@H]5C[C@@](C)(CO)[C@@H]6C[C@@]5(CC[C@]43C)C(=O)O6)[C@@]2(C)CC[C@@H]1O (stereo not given in full),IC50,Beta-galactosidase,> 66.6 µM (inactive)
same,IC50,[19],> 66.6 µM (inactive)
O=C(Nc1cc(Cl)ccc1C(=O)O)c1ccc(C2CC2)cc1,IC50,Hexokinase,5.77 µM (active)
COc1ccc2c(=O)n(-c3ccccc3)sc2c1,IC50,Hexokinase,3 µM (active)
Cc1cccc(N2C(=O)C3C(C2=O)C2(C)C=CC3(C)O2)c1 (stereo not given),IC50,[5],27.6 µM (active)
same,IC50,[6],8.93 µM (active)
CCCCCCCC(=O)Nc1cc(Cl)ccc1C(=O)O,IC50,Hexokinase,> 25 µM (inactive)
Cc1ccsc1/C=N/n1c(S)nnc1-c1ccccn1,IC50,[7],> 100 µM (inactive)
same,IC50,[8],4.89 µM (active)
COc1ccc(/N=C(\C)C2=C(O)SCC2=O)cc1,AC50,[4],12.4 µM (active)
COc1cc(C)c(C)cc1S(=O)(=O)Nc1cccnc1,IC50,[3],> 100 µM (not active)
